Experimental data taken from patent US20240246908A1 (ORION CORPORATION, priority 2021, published 2024).

What follows are compounds tested on YAP-TEAD (assay: TEAD inhibition, Hippo Pathway TEAD Reporter MCF-7 luciferase assay). Settings: Homo sapiens, MCF7, 24 h, Hippo Pathway TEAD Reporter MCF-7 cells, luciferase activity after 24 h; read-out: IC50 of the test compounds on YAP-TEAD inhibition (Group).
Format: cell-based
Method: TEAD inhibition was assayed using Hippo Pathway TEAD Reporter—MCF-7 cell line (BPS Bioscience, Catalog #: 60618) which contains firefly luciferase gene under the control of TEAD responsive elements. In the cell line, YAP1 remains in the nucleus inducing constitutive expression of luciferase reporter. Amount of expressed luciferase was detected using ONE-Glo Luciferase Assay System (Promega) and measuring plates with Enspire Multimode Plate Reader (PerkinElmer).
Hippo Pathway TEAD Reporter—MCF-7 cells were plated on white/clear Poly-D-Lysine coated 384 plates (Corning #356660) at the density of 8500 cells/well. Next day test compounds (11 concentrations with 4 replicates) and DMSO control (0.1%) were added to the plate. After 24 h cells were lysed and luciferase activity was measured. The half maximal inhibitory concentration (IC50) of the test compounds on YAP-TEAD inhibition was determined.

| Structure (SMILES) | IC50 |
| --- | --- |
| O=C1CCC(C(=O)Nc2cc(COc3cccc(F)c3)cc3c2OCO3)N1 (stereo not drawn) [Compound 27, N-(6-((3-Fluorophenoxy)methyl)benzo[d][1,3]dioxol-4-yl)-5-oxopyrrolidine-2-carboxamide] | 50 to 300 nM |
| CN1C(=O)CCC1C(=O)Nc1cc(Oc2cccc(C(F)(F)F)c2)cc2ccoc12 (stereo not drawn) [Compound 28, 1-Methyl-5-oxo-N-(5-(3-(trifluoromethyl)phenoxy)benzofuran-7-yl)pyrrolidine-2-carboxamide] | < 50 nM |
| COc1ccc(Oc2cccc(C(F)(F)F)c2)cc1NC(=O)C1CCC(=O)N1C(C)=O (stereo not drawn) [Compound 29, 1-Acetyl-N-(2-methoxy-5-(3-(trifluoromethyl)phenoxy)phenyl)-5-oxo-pyrrolidine-2-carboxamide] | 50 to 300 nM |
| O=C1CCC(C(=O)Nc2cc(COc3cccc(F)c3)cc3c2OCC3)N1 (stereo not drawn) [Compound 31, N-(5-((3-Fluorophenoxy)methyl)-2,3-dihydrobenzofuran-7-yl)-5-oxopyrrolidine-2-carboxamide] | 301 to 2000 nM |
| CN1C(=O)CCC1C(=O)Nc1cc(COc2cccc(F)c2)cc2c1OCC2 (stereo not drawn) [Compound 32, N-(5-((3-Fluorophenoxy)methyl)-2,3-dihydrobenzofuran-7-yl)-1-methyl-5-oxo-pyrrolidine-2-carboxamide] | 50 to 300 nM |
| O=C1CCC(C(=O)Nc2cc(Oc3cccc(C(F)(F)F)c3)cc3c2OCO3)N1 (stereo not drawn) [Compound 33, 5-Oxo-N-(6-(3-(trifluoromethyl)phenoxy)benzo[d][1,3]dioxol-4-yl)pyrrolidine-2-carboxamide] | < 50 nM |
| CN1C(=O)CCC1C(=O)Nc1cc(Oc2cccc(C(F)(F)F)c2)cc2c1OCO2 (stereo not drawn) [Compound 34, 1-Methyl-5-oxo-N-(6-(3-(trifluoromethyl)phenoxy)benzo[d][1,3]dioxol-4-yl)-pyrrolidine-2-carboxamide] | 50 to 300 nM |
| COc1c(F)cc(COc2cccc(F)c2)cc1NC(=O)C1CCC(=O)N1C (stereo not drawn) [Compound 35, N-(3-Fluoro-5-((3-fluorophenoxy)methyl)-2-methoxyphenyl)-1-methyl-5-oxo-pyrrolidine-2-carboxamide] | 301 to 2000 nM |
| COc1c(F)cc(COc2cccc(F)c2)cc1NC(=O)C1CCC(=O)N1 (stereo not drawn) [Compound 36, N-(3-Fluoro-5-((3-fluorophenoxy)methyl)-2-methoxyphenyl)-5-oxopyrrolidine-2-carboxamide] | 50 to 300 nM |
| CCN1C(=O)CCC1C(=O)Nc1cc(Oc2cccc(C(F)(F)F)c2)ccc1OC (stereo not drawn) [Compound 37, 1-Ethyl-N-(2-methoxy-5-(3-(trifluoromethyl)phenoxy)phenyl)-5-oxopyrrolidine-2-carboxamide] | 50 to 300 nM |
| COc1ccc(Oc2cccc(C(F)(F)F)c2)cc1NC(=O)C1CCC(=O)N1C(=O)C1CC1 (stereo not drawn) [Compound 38, 1-(Cyclopropanecarbonyl)-N-(2-methoxy-5-(3-(trifluoromethyl)phenoxy)-phenyl)-5-oxopyrrolidine-2-carboxamide] | 301 to 2000 nM |
| COc1cc(F)c(Oc2cccc(C(F)(F)F)c2)cc1NC(=O)C1CCC(=O)N1C(C)=O (stereo not drawn) [Compound 39, 1-Acetyl-N-(4-fluoro-2-methoxy-5-(3-(trifluoromethyl)phenoxy)phenyl)-5-oxopyrrolidine-2-carboxamide] | 50 to 300 nM |
| CC(=O)N1C(=O)CCC1C(=O)Nc1cc(Oc2cccc(C(F)(F)F)c2)ccc1F (stereo not drawn) [Compound 40, 1-Acetyl-N-(2-fluoro-5-(3-(trifluoromethyl)phenoxy)phenyl)-5-oxopyrrolidine-2-carboxamide] | 301 to 2000 nM |
| CN1C(=O)CCC1C(=O)Nc1cc(Oc2cccc(C(F)(F)F)c2)ccc1F (stereo not drawn) [Compound 41, N-(2-Fluoro-5-(3-(trifluoromethyl)phenoxy)phenyl)-1-methyl-5-oxopyrrolidine-2-carboxamide] | 301 to 2000 nM |
| COc1ccc(Oc2ccc(F)cc2F)cc1NC(=O)C1CCC(=O)N1 (stereo not drawn) [Compound 42, N-(5-(2,4-Difluorophenoxy)-2-methoxyphenyl)-5-oxopyrrolidine-2-carboxamide] | 50 to 300 nM |
| COc1ccc(Oc2ccc(F)cc2F)cc1NC(=O)C1CCC(=O)N1C (stereo not drawn) [Compound 43, N-(5-(2,4-Difluorophenoxy)-2-methoxyphenyl)-1-methyl-5-oxopyrrolidine-2-carboxamide] | 50 to 300 nM |
| COc1ccc(Oc2ccc(F)cc2F)cc1NC(=O)C1CCC(=O)N1C(C)=O (stereo not drawn) [Compound 44, 1-Acetyl-N-(5-(2,4-difluorophenoxy)-2-methoxyphenyl)-5-oxopyrrolidine-2-carboxamide] | 301 to 2000 nM |
| COc1ccc(Oc2ccc(C(F)(F)F)cc2)cc1NC(=O)C1CCC(=O)N1C(C)=O (stereo not drawn) [Compound 47, 1-Acetyl-N-(2-methoxy-5-(4-(trifluoromethyl)phenoxy)phenyl)-5-oxo-pyrrolidine-2-carboxamide] | < 50 nM |

| Structure (SMILES) | IC50 |
| --- | --- |
| COc1ccc(Oc2ccc(C(F)(F)F)cc2)cc1NC(=O)C1CCC(=O)N1C (stereo not drawn) [Compound 48, N-(2-Methoxy-5-(4-(trifluoromethyl)phenoxy)phenyl)-1-methyl-5-oxopyrrolidi-ne-2-carboxamide] | < 50 nM |
| COc1ccc(COc2cccc(C(F)(F)F)c2)cc1NC(=O)C1CCC(=O)N1 (stereo not drawn) [Compound 49, N-(2-Methoxy-5-((3-(trifluoromethyl)phenoxy)methyl)phenyl)-5-oxopyrrolidine-2-carboxamide] | 50 to 300 nM |
| COc1ccc(COc2cccc(C(F)(F)F)c2)cc1NC(=O)C1CCC(=O)N1C(C)=O (stereo not drawn) [Compound 50, 1-Acetyl-N-(2-methoxy-5-((3-(trifluoromethyl)phenoxy)methyl)phenyl)-5-oxopyrrolidine-2-carboxamide] | 301 to 2000 nM |
| COc1ccc(OCc2cccc(C(F)(F)F)c2)cc1NC(=O)C1CCC(=O)N1C(C)=O (stereo not drawn) [Compound 51, 1-Acetyl-N-(2-methoxy-5-((3-(trifluoromethyl)benzyl)oxy)phenyl)-5-oxo-pyrrolidine-2-carboxamide] | 301 to 2000 nM |
| COc1ccc(OCc2cccc(C(F)(F)F)c2)cc1NC(=O)C1CCC(=O)N1 (stereo not drawn) [Compound 52, N-(2-Methoxy-5-((3-(trifluoromethyl)benzyl)oxy)phenyl)-5-oxopyrrolidine-2-carboxamide] | 50 to 300 nM |
| COc1ccc(OCc2cccc(C(F)(F)F)c2)cc1NC(=O)C1CCC(=O)N1C (stereo not drawn) [Compound 53, N-(2-Methoxy-5-((3-(trifluoromethyl)benzyl)oxy)phenyl)-1-methyl-5-oxo-pyrrolidine-2-carboxamide] | 50 to 300 nM |
| O=C(Nc1cc(Oc2cccc(C(F)(F)F)c2)cc2c1OCCO2)C1CCS(=O)(=O)N1 (stereo not drawn) [Compound 54, N-(7-(3-(Trifluoromethyl)phenoxy)-2,3-dihydrobenzo[b][1,4]dioxin-5-yl)-isothiazolidine-3-carboxamide 1,1-dioxide] | 301 to 2000 nM |
| O=C1CCC(C(=O)Nc2cc(Oc3cccc(C(F)(F)F)c3)cc3c2OCCO3)N1 (stereo not drawn) [Compound 55, 5-Oxo-N-(7-(3-(trifluoromethyl)phenoxy)-2,3-dihydrobenzo[b][1,4]dioxin-5-yl)pyrrolidine-2-carboxamide] | 50 to 300 nM |
| CC(=O)N1C(=O)CCC1C(=O)Nc1cc(Oc2cccc(C(F)(F)F)c2)cc2c1OCCO2 (stereo not drawn) [Compound 56, 1-Acetyl-5-oxo-N-(7-(3-(trifluoromethyl)phenoxy)-2,3-dihydrobenzo[b][1,4]-dioxin-5-yl)pyrrolidine-2-carboxamide] | 50 to 300 nM |
| O=C1CCC(C(=O)Nc2cc(COc3cccc(F)c3)cc3c2OCCO3)N1 (stereo not drawn) [Compound 57, N-(7-((3-Fluorophenoxy)methyl)-2,3-dihydrobenzo[b][1,4]dioxin-5-yl)-5-oxopyrrolidine-2-carboxamide] | 50 to 300 nM |
| CN1C(=O)CCC1C(=O)Nc1cc(COc2cccc(F)c2)cc2c1OCCO2 (stereo not drawn) [Compound 58, N-(7-((3-Fluorophenoxy)methyl)-2,3-dihydrobenzo[b][1,4]dioxin-5-yl)-1-methyl-5-oxopyrrolidine-2-carboxamide] | 301 to 2000 nM |
| COc1ccc(Oc2ccc(F)c(F)c2)cc1NC(=O)C1CCC(=O)N1 (stereo not drawn) [Compound 59, N-(5-(3,4-Difluorophenoxy)-2-methoxyphenyl)-5-oxopyrrolidine-2-carboxamide] | < 50 nM |
| COc1ccc(Oc2ccc(F)c(F)c2)cc1NC(=O)C1CCC(=O)N1C (stereo not drawn) [Compound 60, N-(5-(3,4-Difluorophenoxy)-2-methoxyphenyl)-1-methyl-5-oxopyrrolidine-2-carboxamide] | 50 to 300 nM |
| Cc1c(Oc2cccc(C(F)(F)F)c2)cc(NC(=O)C2CCC(=O)N2)c2c1OCCO2 (stereo not drawn) [Compound 61, N-(8-Methyl-7-(3-(trifluoromethyl)phenoxy)-2,3-dihydrobenzo[b][1,4]dioxin-5-yl)-5-oxopyrrolidine-2-carboxamide] | 301 to 2000 nM |
| COc1ccc(Oc2ccc(C(F)(F)F)nc2)cc1NC(=O)C1CCC(=O)N1 (stereo not drawn) [Compound 62, N-(2-Methoxy-5-((6-(trifluoromethyl)pyridin-3-yl)oxy)phenyl)-5-oxopyrrolidine-2-carboxamide] | 50 to 300 nM |
| COc1ccc(Oc2ccc(C(F)(F)F)nc2)cc1NC(=O)C1CCC(=O)N1C (stereo not drawn) [Compound 63, N-(2-Methoxy-5-((6-(trifluoromethyl)pyridin-3-yl)oxy)phenyl)-1-methyl-5-oxopyrrolidine-2-carboxamide] | 50 to 300 nM |
| COc1ccc(/C=C/C2CCOCC2)cc1NC(=O)C1CCC(=O)N1C (stereo not drawn) [Compound 64, (E)-N-(2-Methoxy-5-(2-(tetrahydro-2H-pyran-4-yl)vinyl)phenyl)-1-methyl-5-oxopyrrolidine-2-carboxamide] | 301 to 2000 nM |
| COc1ccc(/C=C/C2CCOCC2)cc1NC(=O)C1CCC(=O)N1 (stereo not drawn) [Compound 65, (E)-N-(2-Methoxy-5-(2-(tetrahydro-2H-pyran-4-yl)vinyl)phenyl)-5-oxo-pyrrolidine-2-carboxamide] | 301 to 2000 nM |
